{"source": "ChEMBL document CHEMBL5729639", "about": "“FGFR4 inhibitor and preparation method and use thereof” (2023)", "data": [{"target": "Fibroblast growth factor receptor 1 (Homo sapiens, UniProt P11362)", "sequence (P11362 whole entry)": "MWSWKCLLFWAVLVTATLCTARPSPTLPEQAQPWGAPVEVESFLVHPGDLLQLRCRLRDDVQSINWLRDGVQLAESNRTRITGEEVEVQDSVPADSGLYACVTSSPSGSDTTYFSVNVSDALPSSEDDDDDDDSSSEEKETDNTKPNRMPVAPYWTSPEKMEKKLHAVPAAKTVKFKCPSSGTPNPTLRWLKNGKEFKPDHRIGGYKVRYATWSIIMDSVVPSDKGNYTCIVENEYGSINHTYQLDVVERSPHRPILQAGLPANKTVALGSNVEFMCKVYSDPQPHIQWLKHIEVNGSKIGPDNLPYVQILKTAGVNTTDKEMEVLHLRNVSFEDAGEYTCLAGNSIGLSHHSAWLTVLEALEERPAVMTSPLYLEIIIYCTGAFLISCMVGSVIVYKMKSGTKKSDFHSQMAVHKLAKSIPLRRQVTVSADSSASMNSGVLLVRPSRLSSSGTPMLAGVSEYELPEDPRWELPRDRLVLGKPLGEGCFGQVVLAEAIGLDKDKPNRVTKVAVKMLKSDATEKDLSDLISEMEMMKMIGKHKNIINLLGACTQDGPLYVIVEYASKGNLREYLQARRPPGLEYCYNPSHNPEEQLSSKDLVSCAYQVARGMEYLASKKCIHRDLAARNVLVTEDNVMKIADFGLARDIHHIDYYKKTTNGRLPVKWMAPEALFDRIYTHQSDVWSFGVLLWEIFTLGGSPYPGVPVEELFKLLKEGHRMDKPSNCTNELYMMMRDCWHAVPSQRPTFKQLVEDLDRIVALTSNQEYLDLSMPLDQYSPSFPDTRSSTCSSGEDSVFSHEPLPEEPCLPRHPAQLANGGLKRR", "experiment": "Enzymologic Experiment of FGFR1: In this experiment, the inhibitory effect of the compounds on FGFR1 kinase activity was tested by a fluorescence resonance energy transfer (TR-FRET) method, and the half maximal inhibitory concentration (IC50) of the compounds on the FGFR1 kinase activity was determined. 1) 1˜5 μL of FGFR1 enzymatic solution was added to a 384-well plate, and the final concentration of the enzyme was 0.1˜5 nM. 2) 1˜5 μL of diluted solution in gradient of the compound was added.3) 1˜5 μL of a substrate mixture containing substrate polypeptide with a final concentration of 5˜50 nM and ATP with a final concentration of 10˜200 μM was added. 4) The mixture was incubated for 0.5-3 hours at room temperature. 5) 10 μL of EDTA and a test solution comprising labeled antibody were added, and the plate was incubated for 1 hour at room temperature. 6) The fluorescence signal values of each plate were determined by a microplate reader at 665 nm. 7) The inhibition rates were calculated according to the fluorescence signal values.", "units": {"IC50": "µM"}, "values": [{"smiles": "COCCNc1cc(NC(=O)N2CCCc3cc(CN(C=O)C[C@@H]4CCCO4)c(C=O)nc32)ncc1C#N", "IC50": "> 10"}, {"smiles": "COCCNc1cc(NC(=O)N2CCCc3cc(CN(C=O)[C@H]4CCOC4)c(C=O)nc32)ncc1C#N", "IC50": "> 10"}, {"smiles": "COC[C@@H](C)Nc1cc(NC(=O)N2CCCc3cc(CN4CC[C@@H](OC)C4=O)c(C=O)nc32)ncc1C#N", "IC50": "> 10"}, {"smiles": "COCCNc1cc(NC(=O)N2CCCc3cc(CN(C=O)C[C@H]4CCCO4)c(C=O)nc32)ncc1C#N", "IC50": "> 10"}]}]}
